What was measured:
A549 p110 KO cells = assay: IFN-β induction in A549 p110 KO cells; assay type: cell-based, human
WT A549 cells = assay: IFN-β induction in WT A549 cells; assay type: cell-based, human; conditions: compared to A549 p110 KO cells, FIG. 1B
B16F10 = assay: MDA5, IFN-β, CXCL10 levels in murine cancer cell line B16F10; assay type: cell-based; conditions: FIG. 6, FIGS. 7A-7B
HCT 116 = assay: Interferon-stimulated gene expression in HCT 116; assay type: cell-based, human; conditions: FIG. 4, FIGS. 5A-5D
B16F10 melanoma = assay: B16F10 mouse melanoma model, anti-tumor efficacy; assay type: in vivo
From the text: (§1) Study: A B16F10 mouse melanoma model was used to evaluate the anti-tumor efficacy of Compound 1, alone or in combination with anti-PD-1 therapy.

B16F10 tumors = assay: Tumor MDA5, IFN-β and CXCL10 levels in mice with B16F10 tumors; assay type: in vivo, mouse
From the text: as §1

ADAR1 = molecular target: T1, ADAR1 (Homo sapiens, UniProt P55265); assay: ADAR1 Inhibition Assay (IFN fold-induction, Quanti-Luc luminescence, p110 KO A549 dual cells); assay type: cell-based; conditions: IFN fold-induction vs DMSO, 24 and 48 h
T1 construct: endogenous in cells; host or cells: p110 KO A549 dual cells
T1 sequence (P55265 1-1226): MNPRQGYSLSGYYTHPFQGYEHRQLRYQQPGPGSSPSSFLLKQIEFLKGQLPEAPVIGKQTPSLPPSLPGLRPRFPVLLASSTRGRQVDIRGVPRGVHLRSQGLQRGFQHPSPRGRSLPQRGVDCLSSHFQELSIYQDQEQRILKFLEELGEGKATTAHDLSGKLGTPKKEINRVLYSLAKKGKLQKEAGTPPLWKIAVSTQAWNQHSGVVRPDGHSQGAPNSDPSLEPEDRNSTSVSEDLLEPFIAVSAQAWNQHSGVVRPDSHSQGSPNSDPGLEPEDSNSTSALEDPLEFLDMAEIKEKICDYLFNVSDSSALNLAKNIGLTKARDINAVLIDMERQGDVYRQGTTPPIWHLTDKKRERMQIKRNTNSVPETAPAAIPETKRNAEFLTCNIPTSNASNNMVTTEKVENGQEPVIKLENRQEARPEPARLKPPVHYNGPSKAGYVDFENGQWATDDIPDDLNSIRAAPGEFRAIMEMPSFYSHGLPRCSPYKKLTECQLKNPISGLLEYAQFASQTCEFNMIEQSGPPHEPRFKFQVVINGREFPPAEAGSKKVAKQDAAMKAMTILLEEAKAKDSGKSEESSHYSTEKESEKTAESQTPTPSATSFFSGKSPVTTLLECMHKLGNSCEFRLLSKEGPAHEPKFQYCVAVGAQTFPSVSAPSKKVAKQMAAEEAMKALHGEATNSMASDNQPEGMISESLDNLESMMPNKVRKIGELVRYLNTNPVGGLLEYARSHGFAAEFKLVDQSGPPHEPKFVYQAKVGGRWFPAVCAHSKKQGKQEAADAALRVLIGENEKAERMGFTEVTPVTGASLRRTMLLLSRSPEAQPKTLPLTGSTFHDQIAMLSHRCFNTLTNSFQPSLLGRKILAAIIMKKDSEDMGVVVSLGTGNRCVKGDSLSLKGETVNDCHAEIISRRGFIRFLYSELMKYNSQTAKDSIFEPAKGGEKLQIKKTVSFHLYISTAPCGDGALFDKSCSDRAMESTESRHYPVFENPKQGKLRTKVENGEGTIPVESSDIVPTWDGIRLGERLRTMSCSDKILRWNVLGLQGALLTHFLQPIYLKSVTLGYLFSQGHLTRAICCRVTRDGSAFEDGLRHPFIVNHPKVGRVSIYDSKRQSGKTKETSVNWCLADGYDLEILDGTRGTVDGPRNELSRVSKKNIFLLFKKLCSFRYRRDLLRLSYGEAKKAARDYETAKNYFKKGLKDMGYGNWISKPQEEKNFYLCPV
Method in brief: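 p110 KO A549 dual cells (20,000/well) in supplemented DMEM, treated next day with compound at 1% final DMSO for 24 and 48 h at 37 °C, 5% CO2. Supernatant luminescence read with Quanti-Luc; IFN fold-induction = sample RLU/mean DMSO RLU, used for EC50.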

A549 (p110 KO) = assay: Interferon-stimulated gene expression in A549 (p110 KO); assay type: cell-based, human; conditions: FIG. 2, FIGS. 3A-3D
Zα domain of ADAR1 p150 = molecular target: T2, Zα domain of ADAR1 p150 (Homo sapiens, UniProt P55265); assay: SPR binding assay; conditions: 6× his tag Zα domain immobilized on CM5 chip, analyte 0-25 μM
T2 construct: 10 μg/ml of Zα domain of ADAR1 was immobilized on CM5 chip using anti-HIS antibody; made in house
T2 sequence (P55265 133-199 limits assumed): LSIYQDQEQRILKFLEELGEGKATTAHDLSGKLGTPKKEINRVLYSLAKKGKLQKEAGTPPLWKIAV
Method in brief: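 His-tagged Zα domain of human ADAR1 p150, bacterially expressed and Ni-NTA purified, was captured at 10 μg/ml on a CM5 chip via anti-His antibody. Analytes ran at 0–25 μM in PBSP + 5% DMSO, 30 μL/min, with 60 s contact and 320 s dissociation. Kd came from curve fitting.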

Q: For `CCOC(=O)c1cc(-c2ccccc2)sc1NC(=O)COC(=O)c1cccc(S(N)(=O)=O)c1` [Compound 1, Ethyl 5-phenyl-2-(2-((3-sulfamoylbenzoyl)oxy)acetamido)thiophene-3-carboxylate], which “IFN-β induction (via ADAR1 inhibition)” value (A549 p110 KO cells; FIG. 1A) is on record?
A: The value was “dose-dependent IFN-β induction”.

Q: What about the “IFN-β induction compared to STING agonists cGAMP, ADU-S100, MSA-002” value (A549 p110 KO cells; FIG. 1C) of the same compound?
A: The value was “superior IFN-β induction”.

Q: And the IFN-β induction (WT A549 cells)?
A: The IFN-β induction was “Lower IFN-β induction”.

Q: And the “upregulation of MDA5, IFN-β, and CXCL10” value (B16F10)?
A: Its value is “dose-dependent upregulation”.

Q: What about the “expression of several interferon-stimulated genes (ISGs)” value (HCT 116) of the same compound?
A: Its value is “dose-dependent expression”.

Q: And the “tumor growth inhibition (TGI)” value (B16F10 melanoma; B16F10 mouse melanoma model, FIG. 8)?
A: The value was 45%.

Q: What about the tumor weight reduction (B16F10 melanoma; compared to vehicle control, Compound 1 100 μg, FIG. 9) of the same compound?
A: The tumor weight reduction was “about 60%”.

Q: What about the “tumor MDA5 mRNA levels” value (B16F10 tumors; B16F10 melanoma model, FIG. 10) of the same compound?
A: Its value is “significant increase”.

Q: What about the “induction of IFN-β and CXCL10” value (B16F10 tumors; B16F10 tumors in mice, FIG. 11A, 11B) of the same compound?
A: Its value is “increased induction”.

Q: And the EC50 (ADAR1)?
A: Its EC50 is at most 25 µM.

Q: What about the “expression of several interferon-stimulated genes (ISGs)” value (A549 (p110 KO)) of the same compound?
A: Its value is “dose-dependent expression”.

Q: What about the Kd (Zα domain of ADAR1 p150) of the same compound?
A: Its Kd is at most 1 µM.
